Values quoted from earlier work, collected in paper PMC11785675, “Phase Ib study of the oral PI3Kδ inhibitor linperlisib in patients with advanced solid tumors” (International Journal of Clinical Oncology, 2024).

Tests used:
[1] = test system: thymic epithelial tumors cells carrying mutant PI3K subunits; set-up: method as in PMID 27117832; details: in vitro; cited from earlier work
HCC cells = test system: HCC cells; set-up: method as in PMID 24919154, PMID 33093155; details: cited from earlier work
breast cancer = test system: breast cancer; set-up: method as in PMID 24919154, PMID 33093155; details: cited from earlier work
patients [2] = test system: patients; set-up: method as in PMID 31619463; details: cited from earlier work
[3] = test system: advanced or refractory solid tumors; set-up: method as in PMID 27915408; details: 10 Japanese patients, cited from earlier work
advanced solid tumors [4] = test system: advanced solid tumors; set-up: method as in PMID 27672108; details: 48 patients with advanced solid tumors, cited from earlier work
patients [5] = test system: patients; set-up: method as in PMID 27672108; details: cited from earlier work
[6] = comparison drugs; no reference given; cited from earlier work
patients [7] = details: 150 mg twice daily; 12 patients; cited from earlier work
advanced solid tumors [8] = test system: advanced solid tumors; set-up: method as in PMID 35288468; details: parsaclisib monotherapy; five patients; cited from earlier work

CS(=O)(=O)N1CCN(Cc2cc3nc(-c4cccc5[nH]ncc45)nc(N4CCOCC4)c3s2)CC1 [GDC-0941]
Antitumor activity [1]: in vitro antitumor activity

Fc1ccc2[nH]ccc2c1-c1nc(N2CCOCC2)c2sc(CN3CCN(CC4CC4)CC3)cc2n1 [PI-3065]
Apoptosis of HCC cells (HCC cells): directly induce apoptosis of HCC cells
Growth and metastasis of breast cancer (breast cancer): significantly inhibit growth and metastasis of breast cancer

COc1c(OCCCN2CCOCC2)ccc2c1N=C(NC(=O)c1cnc(N)nc1)N1CCN=C21 [copanlisib]
TEAE fatigue, all grade (patients [2]): 46.0%
TEAE hyperglycemia, grade 3 (patients [2]): 22.2%
TEAE hyperglycemia, grade 4 (patients [2]): 1.6%
TEAE hypertension, all grade (patients [2]): 41.3%
TEAE hypertension, grade 3 (patients [2]): 30.2%
TEAE hypertension, grade 4 (patients [2]): 0
TEAE hypophosphatemia, grade 3 (patients [2]): 11.1%
TEAE hypophosphatemia, grade 4 (patients [2]): 0
TEAE lymphocyte count decreased, grade 3 (patients [2]): 7.9%
TEAE lymphocyte count decreased, grade 4 (patients [2]): 4.8%
3-month PFS rate ([3]; 95% CI 1–40): 12%
Median PFS ([3]; 95% CI 21–82): 52 days
CR or PR [3]: no patients achieved a CR or PR
DCR [3]: 40.0%
Patients achieving stable disease (advanced solid tumors [4]): 15 patients
Patients achieving CR (advanced solid tumors [4]; endometrial carcinoma with PIK3CA and PTEN mutations): one
Patients with PR (advanced solid tumors [4]; metastatic breast cancer): two
Patients with AEs possibly related to copanlisib (patients [5]; 49 patients): 86%
Drug-related grade 3 AE hyperglycemia (patients [5]): 30%
Drug-related grade 3 AE hypertension (patients [5]): 14%
Drug-related grade 3 AE rash (patients [5]): 7%
TRAE hyperglycemia, all grades (patients [5]): 63%
TRAE hypertension, all grades (patients [5]): 21%
TRAE nausea, all grades (patients [5]): 37%

C[C@H](Nc1ncnc2[nH]cnc12)c1cc2cccc(Cl)c2c(=O)n1-c1ccccc1 [duvelisib, reference compound]
Route of excretion [6]: predominantly excreted via the intestines

CC[C@H](Nc1ncnc2[nH]cnc12)c1nc2cccc(F)c2c(=O)n1-c1ccccc1 [idelalisib]
Grade ≥ 3 TEAE increased ALT (patients [7]): 25%
Grade ≥ 3 TEAE increased AST (patients [7]): 41.7%
Grade ≥ 3 TEAE maculopapular rash (patients [7]): 25%
TEAE increased ALT (patients [7]): 33.3%
TEAE increased AST (patients [7]): 41.7%
TEAE maculopapular rash (patients [7]): 25%
TEAE pyrexia (patients [7]): 50%

CCOc1c([C@H](C)n2nc(C)c3c(N)ncnc32)cc(Cl)c(F)c1[C@@H]1CNC(=O)C1 [parsaclisib]
CR or PR (advanced solid tumors [8]): none achieved a CR or PR
